Measurements published in patent publication US4058601A, “Method for treating alcoholism” (Chugai Seiyaku Kabushiki Kaisha, priority 1974, dated 1977).
Values joined by “and” are separate entries in the source; they are usually repeats but may differ in a detail not shown here. Identical values can stand only once. “Also recorded” adds a separate entry of the source.

Assays:
[1] = test system: Neutral Lipid in Liver; experiment: Inhibiting action for accumulation of neutral lipid in liver (ethanol-loaded rats); type: in vivo, Sprague Dawley strain male rats
Procedure: Inhibiting Action for Accumulation of Neutral Lipid in Liver
The Sprague Dawley strain male rats weighing 180±30 g which had been fed rat food commercially available as CLEA CE-2 and prevented from eating food for 16 hours just before the experiment was started were divided into groups of 10 rats each. Each rat was orally administered with disodium uridine-5'-diphosphate (UDP-2Na) as a suspension in corn oil in a dose of 100 mg/kg body weight. Thirty minutes after the administration, each rat was orally administered with ethanol as a 50% aqueous solution in a dose of 6 g/kg. body weight and, 24 hours after the administration, the liver was taken out and an amount of neutral lipid contained therein was determined by the Van Handel and Zilver-Smit method. For control, a glucose aqueous solution having a caloric content equivalent to the same amount of ethanol was used instead of ethanol.

[2] = test system: rat (behaviour after ethanol); experiment: Behaviour and righting reflex of rats, UDP-2Na given 30 min before ethanol (Example 2); type: in vivo, Sprague Dawley strain male rats; conditions: UDP-2Na 100 mg/kg p.o. 30 min before ethanol 6 g/kg
Procedure: The Sprague Dawley strain male rats weighing 260±30 g which had been fed rat food commercially available as CLEA CE-2 and prevented from eating food for 12 hours just before the experiment were divided into groups each of 10 - 13 members each. Each rat was orally administered disodium uridine-5'-diphosphate (UDP-2Na) in the form of a suspension in corn oil in an amount 100 mg/kg body weight. Thirty minutes after the administration, ethanol as a 50% aqueous solution was orally administered in a dose of 6 g/kg. body weight and then behavior of the rat was observed over 24 hours.

[3] = test system: rat (behaviour after ethanol); experiment: Behaviour and righting reflex of rats, UDP-2Na given 30 min after ethanol (Example 3); type: in vivo, Sprague Dawley strain male rats; conditions: UDP-2Na 100 mg/kg p.o. 30 min after ethanol 6 g/kg
Procedure: The Sprague Dawley strain male rats weighing 160±30 g which were fed rat food commercially available as CLEA CE-2 and prevented from eating food for 12 hours just before the experiment was started. Each rat was administered with ethanol as a 50% aqueous solution in a dose of 6 g/kg body weight. Thirty minutes after the administration, the rat was orally administered with a suspension of disodium uridine-5'-diphosphate (UDP-2Na) in corn oil in a dose of 100 mg/kg. body weight based on UDP-2Na. The behavior of the rat was observed over 24 hours after the last administration.

[4] = Measurement of alcohol level in blood (alcoholic dehydrogenase method); type: in vivo, Sprague Dawley strain female rats
Procedure: Measurement of Alcohol Level in Blood
(§1) In this Example, Sprague Dawley strain female rats (weighing 150±20 g) divided into groups of 9 - 12 members each were used.
(§2) After abstention from food overnight each rat was orally administered disodium uridine-5'-diphosphate (UDP-2Na) in the form of a physiological saline solution in a dose of 100 mg/kg. body weight as an effective ingredient and, 30 minutes after the administration, the rat was administered with ethanol in a dose of 6 g/kg body weight. Four hours and thirty minutes after the administration of ethanol, the rat was etherized, and blood was sampled from its heart to determine alcohol level in the blood by a alcoholic dehydrogenase method. For control, a physiological saline solution was used instead of the UDP-2Na solution.

[5] = test system: rat (behavior after ethanol); experiment: Behavior of rats in the blood alcohol experiment (Example 4); type: in vivo, Sprague Dawley strain female rats; conditions: UDP-2Na 100 mg/kg p.o. 30 min before ethanol 6 g/kg; ditto mark (") = normal walking
Procedure: as §1, §2

## O=c1ccn([C@@H]2O[C@H](COP(=O)([O-])OP(=O)([O-])O)[C@@H](O)[C@H]2O)c(=O)[nH]1.[Na+].[Na+] [UDP . 2Na, disodium uridine-5'-diphosphate]
[1]; UDP-2Na 100 mg/kg p.o. 30 min before ethanol 6 g/kg p.o., 24 h
  % inhibition (neutral lipid accumulation in liver): 95.7%
[1]; UDP-2Na 100 mg/kg p.o. in corn oil 30 min before ethanol 6 g/kg p.o., liver taken 24 h after
  Neutral Lipid in Liver: 12.69 ± 7.85 mg/g
[2]; 3 hrs after alcohol
  Behaviour: Deep Sleep: 1 heads
  Behaviour: Lying Flat: 5 heads
  Behaviour: Normal Walking: 7 heads
  Righting Reflex +: 12 heads
  Righting Reflex -: 1 heads
[2]; 6 hrs after alcohol
  Behaviour: Deep Sleep: 1 heads
  Behaviour: Lying Flat: 8 heads
  Behaviour: Normal Walking: 4 heads
  Righting Reflex +: 12 heads
  Righting Reflex -: 1 heads
[2]; 9 hrs after alcohol
  Behaviour: Deep Sleep: 0 heads
  Behaviour: Lying Flat: 7 heads
  Behaviour: Normal Walking: 6 heads
  Righting Reflex +: 13 heads
  Righting Reflex -: 0 heads
[2]; 12 hrs after alcohol
  Behaviour: Deep Sleep: 0 heads
  Behaviour: Lying Flat: 0 heads
  Behaviour: Normal Walking: 13 heads
  Righting Reflex +: 13 heads
  Righting Reflex -: 0 heads
[2]; 18 hrs after alcohol
  Behaviour: Deep Sleep: 0 heads
  Behaviour: Lying Flat: 0 heads
  Behaviour: Normal Walking: 13 heads
  Righting Reflex +: 13 heads
  Righting Reflex -: 0 heads
[3]; 3 hrs after alcohol
  Behaviour: Deep Sleep: 1 heads
  Behaviour: Lying Flat: 6 heads
  Behaviour: Normal Walking: 4 heads
  Righting Reflex +: 10 heads
  Righting Reflex -: 1 heads
[3]; 6 hrs after alcohol
  Behaviour: Deep Sleep: 1 heads
  Behaviour: Lying Flat: 7 heads
  Behaviour: Normal Walking: 3 heads
  Righting Reflex +: 9 heads
  Righting Reflex -: 2 heads
[3]; 9 hrs after alcohol
  Behaviour: Deep Sleep: 1 heads
  Behaviour: Lying Flat: 6 heads
  Behaviour: Normal Walking: 4 heads
  Righting Reflex +: 10 heads
  Righting Reflex -: 1 heads
[3]; 12 hrs after alcohol
  Behaviour: Deep Sleep: 0 heads
  Behaviour: Lying Flat: 1 heads
  Behaviour: Normal Walking: 10 heads
  Righting Reflex +: 11 heads
  Righting Reflex -: 0 heads
[3]; 18 hrs after alcohol
  Behaviour: Deep Sleep: 0 heads
  Behaviour: Lying Flat: 0 heads
  Behaviour: Normal Walking: 11 heads
  Righting Reflex +: 11 heads
  Righting Reflex -: 0 heads
[4]; UDP-2Na 100 mg/kg p.o. in saline 30 min before ethanol 6 g/kg, 4 h 30 min after ethanol, *Confidence Limits: 98%
  Ethanol level in Blood, Average: 1.51 ± 1.09 mg/mL
[4]; UDP-2Na 100 mg/kg p.o. in saline 30 min before ethanol 6 g/kg, blood 4 h 30 min after ethanol
  Ethanol level in Blood (individual test animals No. 1-12): 2.11 mg/mL and 1.77 mg/mL and 0.57 mg/mL and 0.24 mg/mL and 0.75 mg/mL and 2.10 mg/mL and 1.08 mg/mL and 1.35 mg/mL and 1.72 mg/mL and 1.50 mg/mL and 2.16 mg/mL and 2.74 mg/mL
[4]; UDP-2Na 100 mg/kg p.o., result in words
  alcohol level in blood in comparison with the control: significantly lowered
[5]
  Behavior (individual test animals No. 1-12): normal walking; also recorded: lying flat; also recorded: deep sleep
